Assay results from publication PMC13489962, “Small-molecule modulation of β-arrestins” (Nature, 2026).

Key:
β-arrestin = assay: Functional assays (not specified); conditions: peer review reply
βARR1 L129G = molecular target: T1, βARR1 L129G (Rattus norvegicus, UniProt P29066, L129G); assay: ITC binding to βARR1 mutant L129G; conditions: 25 °C
T1 construct: βARR1 or βARR2 construct, with their C terminus truncated (at amino acid 393 or 394, respectively); GST (pGEX4T1) (N, cleaved yes); made in house; host or cells: E. coli BL21 (DE3) pLysS
T1 sequence (P29066 1-393 L129G): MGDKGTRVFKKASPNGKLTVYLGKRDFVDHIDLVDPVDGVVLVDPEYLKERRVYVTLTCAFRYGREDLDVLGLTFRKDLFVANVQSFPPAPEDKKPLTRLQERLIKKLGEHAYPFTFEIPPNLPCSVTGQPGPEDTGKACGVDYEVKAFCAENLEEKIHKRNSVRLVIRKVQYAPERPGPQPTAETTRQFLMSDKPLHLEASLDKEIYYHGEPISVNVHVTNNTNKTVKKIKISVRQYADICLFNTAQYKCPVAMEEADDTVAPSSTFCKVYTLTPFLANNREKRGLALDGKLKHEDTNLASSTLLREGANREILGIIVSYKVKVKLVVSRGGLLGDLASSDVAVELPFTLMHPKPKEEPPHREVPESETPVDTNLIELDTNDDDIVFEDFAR
Method: (§1) The expression and purification of β-arrestins have been described previously[44],[62]–[64]. In brief, E. coli BL21 (DE3) pLysS cells (New England Biolabs: C2527I) carrying pGEX4T1-Rattus norvegicus βARR1 or βARR2 construct, with their C terminus truncated (at amino acid 393 or 394, respectively), were cultured in Terrific Broth (Teknova) medium at 37 °C. After OD600 reached 0.6–0.8, the cells were induced with 0.1 mM isopropyl-β-D-thiogalactopyranoside (IPTG) at 18 °C overnight. Bacteria were collected by centrifugation (4,000 rpm), and cell pellets were resuspended in lysis buffer (20 mM HEPES, pH 8, 150 mM NaCl, 10% glycerol, 1 mM EDTA, 0.2 mM dithiothreitol (DTT), 1 mM phenylmethylsulfonyl fluoride, and 1 mM benzamidine) at 4 °C for 1 h. […] Eluted fractions were analysed by SDS–PAGE, pooled, concentrated using 30 kDa MWCO Amicon Ultra-15 Centrifugal Filter devices, flash-frozen in liquid nitrogen, and stored in aliquots at −80 °C. […] Protein concentrations for each protein were determined by ultraviolet absorption at 280 nm and extinction coefficients estimated using the ExPASy ProtParam tool[67].
(§2) ITC measurements were performed on a MicroCal iTC200 system at 25 °C. […] Protein concentrations were determined by spectrophotometry at 280 nm, using extinction coefficients calculated from each protein sequence via the ProtParam program. […]

[1] = tested on: βARR2 conformation (AT1R); assay: Intramolecular FlAsH-BRET βARR2 conformational sensors; format: cell-based, human; conditions: 50 μM, 15 min; AngII 10 μM
Method: Intramolecular FlAsH-BRET assays[72] were performed in HEK293 βARR1/2-knockout cells transiently transfected using FuGENE4K with 2 μg total DNA per 15 cm dish. Cells were transfected with 1.5 μg of pcDNA3.1 encoding human AT1R and 0.4 μg of a plasmid encoding the indicated RLuc–β-arrestin2–FlAsH biosensors. Twenty-four hours after transfection, cells were replated into poly-D-lysine-coated 96-well white, clear-bottom plates at 100,000 cells per well in MEM supplemented with 10% FBS. Forty-eight hours after transfection, cells were labelled with FlAsH-EDT2 (FlAsH II In-Cell Tetracysteine Detection Kit, Thermo Fisher) at a final concentration of 2.5 μM for 30 min at room temperature. Following labelling, cells were washed twice with BAL wash buffer (250 μM 2,3-dimercapto-1-propanol in HBSS), then equilibrated in HBSS supplemented with 20 mM HEPES (pH 7.4). Modulators were applied at 50 μM for 15 min, followed by addition of Prolume Purple substrate (Nanolight Technologies). Cells were then stimulated with 10 μM angiotensin II. BRET signals were recorded using a CLARIOstar Plus plate reader in kinetic mode (480 nm donor, 530 nm acceptor) for 30 min, and peak values were used for quantification. ΔNet BRET was calculated by subtracting baseline values from each condition, including agonist alone, modulator alone, or agonist plus modulator.

βARR1 R285A = molecular target: T2, βARR1 R285A (Rattus norvegicus, UniProt P29066, R285A); assay: ITC binding to βARR1 mutant R285A
T2 construct: βARR1 or βARR2 construct, with their C terminus truncated (at amino acid 393 or 394, respectively); GST (pGEX4T1) (N, cleaved yes); made in house; host or cells: E. coli BL21 (DE3) pLysS
T2 sequence (P29066 1-393 R285A): as the sequence (P29066 1-393 L129G) above, with G129L, R285A counted along it
Method: as §1, §2

βARR1 K138A = molecular target: T3, βARR1 K138A (Rattus norvegicus, UniProt P29066, K138A); assay: ITC binding to βARR1 mutant K138A; conditions: 25 °C
T3 construct: βARR1 or βARR2 construct, with their C terminus truncated (at amino acid 393 or 394, respectively); GST (pGEX4T1) (N, cleaved yes); made in house; host or cells: E. coli BL21 (DE3) pLysS
T3 sequence (P29066 1-393 K138A): as the sequence (P29066 1-393 L129G) above, with G129L, K138A counted along it
Method: as §1, §2

βARR1 Y249A = molecular target: T4, βARR1 Y249A (Rattus norvegicus, UniProt P29066, Y249A); assay: ITC binding to βARR1 mutant Y249A
T4 construct: βARR1 or βARR2 construct, with their C terminus truncated (at amino acid 393 or 394, respectively); GST (pGEX4T1) (N, cleaved yes); made in house; host or cells: E. coli BL21 (DE3) pLysS
T4 sequence (P29066 1-393 Y249A): as the sequence (P29066 1-393 L129G) above, with G129L, Y249A counted along it
Method: as §1, §2

C=C1C(=O)[C@]23[C@H](O)[C@H]1CC[C@H]2[C@@]12CO[C@]3(O)[C@@H](O)[C@@H]1C(C)(C)CC[C@@H]2O [Cmpd-5, (1S,4aR,5S,6S,6aR,9S,11aS,11bS,14R)-1,5,6,14-tetrahydroxy−4,4-dimethyl-8-methylenedecahydro-1H-6,11b-(epoxymethano)-6a,9-methanocyclohepta[a]naphthalen-7(8H)-one]
binding affinity from functional assays (β-arrestin): 2 to 10 µM
Kd (βARR1 L129G): 2 ± 0.7 µM
effect on AngII-induced active βarr2 FlAsH-BRET signature [1]: largely attenuates this active signature
Kd fold over WT, βARR1 R285A (βARR1 R285A): 46.5 fold
ΔH, βARR1 R285A (βARR1 R285A; 25 °C): -6.28 kJ/mol
Kd (βARR1 K138A): 1 ± 0.3 µM
Kd fold over WT, βARR1 Y249A (βARR1 Y249A): 10.6 fold
Kd (βARR1 Y249A; 25 °C): 3.8 ± 0.9 µM
